# In patent EP3363436A1, “AGENT FOR TREATING PARASITIC WORM DISEASES” (Haas, Helmut, priority 2017, dated 2018):
# Tested on: S. mansoni
# Test: Drug testing on schistosomes in vitro (incubation of cultured worms with the substance, morphological assessment)
# Type: cell-based
# Source text: Mirazidien für die Infektion von Wasserschnecken (Biomphalaria glabrata, Stamm Puerto Rico) wurden mittels Standardverfahren aus Gewebe (Leber, Darm) von Syrischen Goldhamstern bzw. Mäusen gewonnen, die mit S. mansoni (Liberian strain bzw. Brasilian strain) infiziert worden waren. Hierzu wurde das Gewebe (freundlicherweise zur Verfügung gestellt von Prof. Dr. Grevelding, Universität Gießen bzw. von Dr. Sombetzki, Universität Rostock) mechanisch zerkleinert und die darin enthaltenen Wurmeier mittels Enzymverdau aus dem Gewebeverband herausgelöst. Nach Zugabe von H2O zu dem Gewebspräzipitat schlüpfen aus den Eiern die Mirazidien. Die Infektion erfolgte separat für jede Schnecke mit 4-7 Mirazidien. Da Licht für die Zerkarien der Schlüsselreiz zum Verlassen der Schnecke ist, wurden die Schnecken in der vierten Woche nach Infektion dunkel gestellt, um ein vorzeitiges Ausschwärmen von Zerkarien zu unterbinden.
# 6-7 Wochen nach Infektion wurden die infizierten Schnecken aus Beispiel 1 in Wasser mittels einer 60-Watt Glühlampe von oben belichtet, da ab diesem Zeitpunkt Zerkarien die infizierten Schnecken in ausreichender Menge verlassen. Während einer Belichtungsdauer von 2-3 Stunden wurden die aufschwimmenden Zerkarien gesammelt. Nach wiederholtem Waschen und Überführen in Medium erfolgte die Transformation der Zerkarien mechanisch nach Standardverfahren. Dazu erfolgten wiederholte Passagen durch eine Emulsionsnadel, an die zwei Spritzen angeschlossen sind. Die durch die Transformation aus den Zerkarien (Gabelschwanzlarven) entstandenen Schistosomula wurden ebenfalls wiederholt in Medium gewaschen und dabei von den abgescherten Schwänzen getrennt.
# Die transformierten Schistosomula wurden nach dem von Basch beschriebenen Verfahren kultiviert (Basch (1981), J Parasitol.; 67: 179-185), wobei das Verfahren leicht modifiziert wurde, wie es bei Reimers beschrieben wurde (Reimers et al. (2015), PLoS Negl Trop Dis 9(3): e0003593). […]
SMILES,"Verstärkung der Wirkung von Felodipin (Loperamid given together with Felodipin, in vitro)","Abtöten von Schistosomen (in vitro, Schistosomula, juvenile and adult worms, initially 10 µM (Figures 1-2: 10, 20, 40 µM), 24 h exposure then wash-out, assessed at 4 h, 24 h, 48 h, 72 h and 7 days)",morphologische Veränderungen und Schädigung der Würmer (incubation of parasitic worms with Felodipin in vitro)
"CN(C)C(=O)C(CCN1CCC(O)(c2ccc(Cl)cc2)CC1)(c1ccccc1)c1ccccc1 [Loperamid, 4-[4-(4-Chlorphenyl)-4-hydroxypiperidin-1-yl]-N,N-dimethyl-2,2-diphenylbutyramid]",verstärkt Loperamid die Wirkung von Felodipin signifikant,,
CCOC(=O)C1=C(C)NC(C)=C(C(=O)OC)C1c1cccc(Cl)c1Cl (racemic) [Felodipin],,hochwirksam Schistosomen abtöten,erheblichen morphologischen Veränderungen und irreversiblen Schädigung der Würmer
